# According to patent US5112804A, “Pharmaceutical composition and method of intranasal administration” (Temple University of the Commonwealth System of Higher …, priority 1989, dated 1992):
# Tested on: blood glucose level
# Assay: Insulin absorption animal study, continuous blood glucose monitoring after nasal administration
# Assay type: in vivo, dog
# Details: dogs
# From the text: The hypoglycemic effect of the above preparations was confirmed in animal glucose monitoring studies utilizing continuous glucose monitoring with the device described in J. Clin. Endocrinol. Metab. 53: 1145 (1984). The device consists of a system for nonthrombogenic blood withdrawal coupled to a system for blood glucose measurement. The blood withdrawal system includes a disposable sterile intravenous needle and catheter connected to a peristaltic pump. The inside wall of the catheter is coated with tridodecyclmethylammonium chloride complexed with heparin to provide a nonthrombogenic surface. Blood is continuously withdrawn at a rate of 12 ml/hr from the experimental animal via the nonthrombogenic catheter. The blood is diluted in a Plexiglass mixing chamber with six volumes of phosphate buffer solution (0.015 M; pH 7.4) containing 10 IU/ml heparin and then moved into the device's sensory chamber. […]
# Six preconditioned female mongrel hound dogs treated for worms, weighing 19-20 kg, were fasted overnight and anesthetized in the morning with intravenous "NEMBUTAL" sodium pentobarbital (250 mg initial dose, 25 mg every 30 minutes for maintenance). […] Blood glucose level was continuously monitored. The resulting decrease in blood glucose level for the insulin dosages in Table 1 are recorded in FIGS. 1 to 12.
smiles,measurement,value
CC1(C)[C@@H](O)CC[C@]2(C)[C@H]3C(=O)C=C4[C@@H]5C[C@@](C)(C(=O)O)CC[C@]5(C)CC[C@@]4(C)[C@]3(C)CC[C@@H]12 [glycyrrhetinic acid],enhancing absorption of insulin across the nasal membrane,effective
